Measurements from PMC9288506, “Compounds activating VCP D1 ATPase enhance both autophagic and proteasomal neurotoxic protein clearance” (Nature Communications, 2022).

How the values were obtained:
[1] = biological target: T1, VCP (p97, Valosin-containing protein) (Homo sapiens, UniProt P55072); test: SPR (also DARTS, LiP-MS, competition pulldown, ATPase activation); type: binding
T1 construct: Full-length VCP (6xHis-tag)

[2] = biological target: AURKB (Aurora B) (Homo sapiens, UniProt Q96GD4); test: biochemical; design: Thermo Fisher in vitro kinase panel, per cent inhibition of kinase activity at 10 uM
Protocol: (§1) Kinase profiling of SMER28 and analogs SMER28 and analogs were tested at 10 µM in a panel of 123 kinases at ThermoFisher Scientific. Follow-up of selected kinases for SMER28 and analogs was also performed at ThermoFisher Scientific. Data are shown in Supplementary Data 2 and 3. […] An inhibition of PIK3C could induce autophagy, mediated by signaling through the AKT/mTOR axis[45].

[3] = biological target: BTK (Homo sapiens, UniProt Q06187); test: biochemical; design: Thermo Fisher in vitro kinase panel, per cent inhibition of kinase activity at 10 uM
Chain of BTK (Q06187 whole entry): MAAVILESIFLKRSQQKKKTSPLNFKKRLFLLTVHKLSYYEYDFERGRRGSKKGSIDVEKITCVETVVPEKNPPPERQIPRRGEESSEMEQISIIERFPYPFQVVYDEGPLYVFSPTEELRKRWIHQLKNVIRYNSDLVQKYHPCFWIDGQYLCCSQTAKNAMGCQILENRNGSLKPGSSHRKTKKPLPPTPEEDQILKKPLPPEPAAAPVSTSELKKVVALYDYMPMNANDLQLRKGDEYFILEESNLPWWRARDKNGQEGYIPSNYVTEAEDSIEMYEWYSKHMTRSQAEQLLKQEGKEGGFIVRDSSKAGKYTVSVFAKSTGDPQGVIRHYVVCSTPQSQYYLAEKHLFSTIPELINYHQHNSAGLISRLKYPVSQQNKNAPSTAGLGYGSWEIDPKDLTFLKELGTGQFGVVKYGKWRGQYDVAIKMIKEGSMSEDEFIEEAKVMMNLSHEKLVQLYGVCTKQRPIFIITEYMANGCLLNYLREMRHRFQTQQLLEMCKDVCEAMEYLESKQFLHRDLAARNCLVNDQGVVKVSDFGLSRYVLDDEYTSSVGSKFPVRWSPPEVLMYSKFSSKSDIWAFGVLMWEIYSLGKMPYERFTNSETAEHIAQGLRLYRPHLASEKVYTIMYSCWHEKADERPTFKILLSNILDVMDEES
Protocol: as §1

[4] = biological target: CDK7/cyclin H/MNAT1 (Homo sapiens, UniProt P50613); test: biochemical; design: Thermo Fisher in vitro kinase panel, per cent inhibition of kinase activity at 10 uM
Chain of CDK7/cyclin H/MNAT1 (P50613 whole entry): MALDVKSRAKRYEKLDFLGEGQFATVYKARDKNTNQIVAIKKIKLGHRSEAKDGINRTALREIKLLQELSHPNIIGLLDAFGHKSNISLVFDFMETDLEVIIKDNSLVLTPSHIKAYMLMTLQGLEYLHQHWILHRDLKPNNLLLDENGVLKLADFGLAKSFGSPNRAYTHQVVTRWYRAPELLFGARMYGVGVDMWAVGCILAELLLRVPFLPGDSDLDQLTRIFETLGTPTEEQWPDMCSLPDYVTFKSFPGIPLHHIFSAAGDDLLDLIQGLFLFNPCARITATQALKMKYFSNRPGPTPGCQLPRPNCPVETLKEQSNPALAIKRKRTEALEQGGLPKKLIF
Chain of CDK7/cyclin H/MNAT1 (P51946 whole entry partner): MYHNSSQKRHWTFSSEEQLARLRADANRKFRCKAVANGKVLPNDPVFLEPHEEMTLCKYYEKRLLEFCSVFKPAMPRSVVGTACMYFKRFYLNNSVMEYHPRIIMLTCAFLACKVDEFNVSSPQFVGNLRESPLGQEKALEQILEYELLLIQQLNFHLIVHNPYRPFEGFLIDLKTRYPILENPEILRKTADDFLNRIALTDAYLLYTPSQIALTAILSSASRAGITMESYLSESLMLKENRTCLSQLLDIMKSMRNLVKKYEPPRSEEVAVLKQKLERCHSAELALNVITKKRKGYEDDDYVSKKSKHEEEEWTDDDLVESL
Chain of CDK7/cyclin H/MNAT1 (P51948 whole entry partner): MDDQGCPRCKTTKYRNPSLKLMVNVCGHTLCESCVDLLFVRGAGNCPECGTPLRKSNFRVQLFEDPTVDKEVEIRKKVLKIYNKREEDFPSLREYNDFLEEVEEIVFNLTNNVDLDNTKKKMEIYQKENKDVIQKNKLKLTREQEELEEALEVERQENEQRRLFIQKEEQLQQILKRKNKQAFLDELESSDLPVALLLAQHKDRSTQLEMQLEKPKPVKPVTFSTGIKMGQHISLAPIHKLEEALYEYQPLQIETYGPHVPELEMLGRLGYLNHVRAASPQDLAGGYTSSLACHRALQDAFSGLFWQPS
Protocol: as §1

[5] = biological target: DMPK (Homo sapiens, UniProt Q09013); test: biochemical; design: Thermo Fisher in vitro kinase panel, per cent inhibition of kinase activity at 10 uM
Protocol: as §1

[6] = biological target: EPHB4 (Homo sapiens, UniProt P54760); test: biochemical; design: Thermo Fisher in vitro kinase panel, per cent inhibition of kinase activity at 10 uM
Protocol: as §1

[7] = biological target: ERBB2 (HER2) (Homo sapiens, UniProt P04626); test: biochemical; design: Thermo Fisher in vitro kinase panel, per cent inhibition of kinase activity at 10 uM
Protocol: as §1

[8] = biological target: GSK3A (GSK3 alpha) (Homo sapiens, UniProt P49840); test: biochemical; design: Thermo Fisher in vitro kinase panel, per cent inhibition of kinase activity at 10 uM
Chain of GSK3A (GSK3 alpha) (P49840 whole entry): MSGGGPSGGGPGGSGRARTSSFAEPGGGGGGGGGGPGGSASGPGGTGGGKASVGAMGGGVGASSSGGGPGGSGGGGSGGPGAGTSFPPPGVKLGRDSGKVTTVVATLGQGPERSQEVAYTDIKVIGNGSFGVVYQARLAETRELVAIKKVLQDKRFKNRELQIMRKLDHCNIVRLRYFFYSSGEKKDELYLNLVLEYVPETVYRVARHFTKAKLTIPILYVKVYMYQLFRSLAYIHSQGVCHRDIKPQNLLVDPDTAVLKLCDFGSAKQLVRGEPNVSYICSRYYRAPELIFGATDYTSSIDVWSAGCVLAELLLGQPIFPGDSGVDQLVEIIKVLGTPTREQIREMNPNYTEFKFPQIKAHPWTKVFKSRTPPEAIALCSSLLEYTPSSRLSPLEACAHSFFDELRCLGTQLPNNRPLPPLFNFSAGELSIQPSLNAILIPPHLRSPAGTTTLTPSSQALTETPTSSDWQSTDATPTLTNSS
Protocol: as §1

[9] = biological target: GSK3B (GSK3 beta) (Homo sapiens, UniProt P49841); test: biochemical; design: Thermo Fisher in vitro kinase panel, per cent inhibition of kinase activity at 10 uM
Protocol: as §1

[10] = biological target: MARK1 (MARK) (Homo sapiens, UniProt Q9P0L2); test: biochemical; design: Thermo Fisher in vitro kinase panel, per cent inhibition of kinase activity at 10 uM
Chain of MARK1 (MARK) (Q9P0L2 whole entry): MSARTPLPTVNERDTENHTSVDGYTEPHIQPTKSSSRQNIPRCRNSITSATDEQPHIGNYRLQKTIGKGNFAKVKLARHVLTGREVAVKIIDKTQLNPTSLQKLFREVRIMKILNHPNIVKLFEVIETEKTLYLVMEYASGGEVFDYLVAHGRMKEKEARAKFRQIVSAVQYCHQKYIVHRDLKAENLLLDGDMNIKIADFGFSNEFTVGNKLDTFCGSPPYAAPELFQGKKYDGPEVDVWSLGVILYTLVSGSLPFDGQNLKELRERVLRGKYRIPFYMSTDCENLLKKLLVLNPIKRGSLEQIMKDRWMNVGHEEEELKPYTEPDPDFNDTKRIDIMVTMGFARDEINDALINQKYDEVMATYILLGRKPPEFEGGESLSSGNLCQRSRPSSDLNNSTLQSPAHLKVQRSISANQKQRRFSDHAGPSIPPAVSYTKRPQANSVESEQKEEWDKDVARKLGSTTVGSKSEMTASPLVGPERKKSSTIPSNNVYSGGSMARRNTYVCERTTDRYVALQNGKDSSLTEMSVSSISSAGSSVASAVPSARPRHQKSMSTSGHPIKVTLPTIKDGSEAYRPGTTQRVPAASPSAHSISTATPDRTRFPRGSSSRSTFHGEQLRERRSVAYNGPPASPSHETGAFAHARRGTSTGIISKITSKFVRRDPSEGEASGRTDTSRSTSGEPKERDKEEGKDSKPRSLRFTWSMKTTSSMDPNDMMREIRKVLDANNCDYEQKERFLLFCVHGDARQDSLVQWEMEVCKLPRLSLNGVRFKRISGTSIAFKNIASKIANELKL
Protocol: as §1

[11] = biological target: MET (cMet) (Homo sapiens, UniProt P08581); test: biochemical; design: Thermo Fisher in vitro kinase panel, per cent inhibition of kinase activity at 10 uM
Protocol: as §1

[12] = biological target: NEK2 (Homo sapiens, UniProt P51955); test: biochemical; design: Thermo Fisher in vitro kinase panel, per cent inhibition of kinase activity at 10 uM
Protocol: as §1

[13] = biological target: NUAK1 (ARK5) (Homo sapiens, UniProt O60285); test: biochemical; design: Thermo Fisher in vitro kinase panel, per cent inhibition of kinase activity at 10 uM
Chain of NUAK1 (ARK5) (O60285 whole entry): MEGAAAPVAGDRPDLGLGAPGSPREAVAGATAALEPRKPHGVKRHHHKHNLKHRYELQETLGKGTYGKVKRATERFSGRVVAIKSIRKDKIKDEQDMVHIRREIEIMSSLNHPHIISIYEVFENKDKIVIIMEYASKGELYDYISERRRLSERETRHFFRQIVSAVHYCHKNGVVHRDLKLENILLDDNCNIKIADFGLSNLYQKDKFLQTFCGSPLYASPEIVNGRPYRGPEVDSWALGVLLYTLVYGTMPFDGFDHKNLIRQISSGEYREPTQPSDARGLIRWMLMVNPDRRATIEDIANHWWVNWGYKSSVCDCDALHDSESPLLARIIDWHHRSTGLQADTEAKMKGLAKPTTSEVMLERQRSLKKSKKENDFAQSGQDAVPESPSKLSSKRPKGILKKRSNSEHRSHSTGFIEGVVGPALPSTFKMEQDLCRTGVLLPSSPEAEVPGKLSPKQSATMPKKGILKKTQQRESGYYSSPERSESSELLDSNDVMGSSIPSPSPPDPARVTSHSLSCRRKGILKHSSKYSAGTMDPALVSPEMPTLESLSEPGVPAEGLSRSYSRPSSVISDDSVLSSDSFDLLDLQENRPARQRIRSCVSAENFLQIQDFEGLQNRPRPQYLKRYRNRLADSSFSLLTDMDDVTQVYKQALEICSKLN
Protocol: as §1

[14] = biological target: PI4KB (PI4K beta) (Homo sapiens, UniProt Q9UBF8); test: biochemical; design: Thermo Fisher in vitro kinase panel, per cent inhibition of kinase activity at 10 uM
Protocol: as §1

[15] = biological target: PIK3CA/PIK3R1 (p110 alpha/p85 alpha) (Homo sapiens, UniProt P42336); test: biochemical; design: Thermo Fisher in vitro kinase panel, per cent inhibition of kinase activity at 10 uM
Protocol: as §1

[16] = biological target: PIK3CD/PIK3R1 (p110 delta/p85 alpha) (Homo sapiens, UniProt O00329); test: biochemical; design: Thermo Fisher in vitro kinase panel, per cent inhibition of kinase activity at 10 uM
Protocol: as §1

[17] = biological target: PIM2 (Homo sapiens, UniProt Q9P1W9); test: biochemical; design: Thermo Fisher in vitro kinase panel, per cent inhibition of kinase activity at 10 uM
Chain of PIM2 (Q9P1W9 whole entry): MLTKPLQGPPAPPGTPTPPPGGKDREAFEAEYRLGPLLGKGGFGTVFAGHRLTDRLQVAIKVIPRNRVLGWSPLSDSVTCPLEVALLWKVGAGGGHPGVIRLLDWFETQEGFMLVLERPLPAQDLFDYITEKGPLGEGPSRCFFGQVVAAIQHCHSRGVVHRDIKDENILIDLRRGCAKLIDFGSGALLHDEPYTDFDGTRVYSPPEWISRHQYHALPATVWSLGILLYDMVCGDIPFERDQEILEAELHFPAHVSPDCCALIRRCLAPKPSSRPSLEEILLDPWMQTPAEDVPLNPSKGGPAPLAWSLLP
Protocol: as §1

[18] = biological target: PRKACA (PKA) (Homo sapiens, UniProt P17612); test: biochemical; design: Thermo Fisher in vitro kinase panel, per cent inhibition of kinase activity at 10 uM
Protocol: as §1

[19] = biological target: RAF1 (cRAF) Y340D Y341D (Homo sapiens, UniProt P04049, Y340D/Y341D); test: biochemical; design: Thermo Fisher in vitro kinase panel, per cent inhibition of kinase activity at 10 uM
Protocol: as §1

[20] = biological target: RET V804M (Homo sapiens, UniProt P07949, V804M); test: biochemical; design: Thermo Fisher in vitro kinase panel, per cent inhibition of kinase activity at 10 uM
Chain of RET V804M (P07949 whole entry V804M): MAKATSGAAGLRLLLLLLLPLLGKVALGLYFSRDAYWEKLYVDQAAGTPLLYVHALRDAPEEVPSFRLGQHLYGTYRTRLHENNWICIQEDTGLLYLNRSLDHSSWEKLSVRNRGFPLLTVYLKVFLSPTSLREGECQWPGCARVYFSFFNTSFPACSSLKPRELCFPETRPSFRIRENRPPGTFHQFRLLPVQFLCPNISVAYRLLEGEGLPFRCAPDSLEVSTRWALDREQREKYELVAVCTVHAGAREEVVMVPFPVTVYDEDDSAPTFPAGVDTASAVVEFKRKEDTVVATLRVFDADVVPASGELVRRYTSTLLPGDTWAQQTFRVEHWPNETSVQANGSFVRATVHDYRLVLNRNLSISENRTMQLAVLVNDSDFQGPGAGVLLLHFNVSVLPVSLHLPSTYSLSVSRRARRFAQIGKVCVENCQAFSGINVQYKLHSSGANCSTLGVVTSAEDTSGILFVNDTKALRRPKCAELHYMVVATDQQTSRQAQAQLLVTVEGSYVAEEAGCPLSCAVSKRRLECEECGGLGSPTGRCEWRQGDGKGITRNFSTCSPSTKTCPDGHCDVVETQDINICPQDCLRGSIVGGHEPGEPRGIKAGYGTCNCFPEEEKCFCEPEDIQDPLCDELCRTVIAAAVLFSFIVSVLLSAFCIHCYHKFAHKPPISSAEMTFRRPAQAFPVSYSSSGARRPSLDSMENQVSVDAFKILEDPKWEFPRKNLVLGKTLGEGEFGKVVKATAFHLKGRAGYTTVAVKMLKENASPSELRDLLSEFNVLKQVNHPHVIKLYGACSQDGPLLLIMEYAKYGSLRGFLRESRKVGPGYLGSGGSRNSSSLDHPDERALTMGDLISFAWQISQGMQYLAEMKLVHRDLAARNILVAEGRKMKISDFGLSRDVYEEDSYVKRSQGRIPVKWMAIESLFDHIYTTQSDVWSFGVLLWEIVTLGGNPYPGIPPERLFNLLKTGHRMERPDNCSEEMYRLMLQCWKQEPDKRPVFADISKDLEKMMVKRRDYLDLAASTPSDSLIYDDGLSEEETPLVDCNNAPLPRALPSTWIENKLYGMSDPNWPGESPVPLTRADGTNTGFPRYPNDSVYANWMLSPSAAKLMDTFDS
Protocol: as §1

[21] = biological target: ROCK2 (Homo sapiens, UniProt O75116); test: biochemical; design: Thermo Fisher in vitro kinase panel, per cent inhibition of kinase activity at 10 uM
Protocol: as §1

## C=CCNc1ncnc2ccc(Br)cc12 [SMER28]
[1]
  Kd: ~750 nM
[2]
  inhibition at 10 µM: 18%
[3]
  inhibition at 10 µM: 8%
[4]
  inhibition at 10 µM: 34%
[5]
  inhibition at 10 µM: 57%
[6]
  inhibition at 10 µM: -1%
[7]
  inhibition at 10 µM: -1%
[8]
  inhibition at 10 µM: 23%
[9]
  inhibition at 10 µM: 24%
[10]
  inhibition at 10 µM: 11%
[11]
  inhibition at 10 µM: 8%
[12]
  inhibition at 10 µM: -1%
[13]
  inhibition at 10 µM: 40%
[14]
  inhibition at 10 µM: 66%
[15]
  inhibition at 10 µM: 78%
[16]
  inhibition at 10 µM: 78%
[17]
  inhibition at 10 µM: -15%
[18]
  inhibition at 10 µM: 10%
[19]
  inhibition at 10 µM: 13%
[20]
  inhibition at 10 µM: 38%
[21]
  inhibition at 10 µM: -5%
